According to patent publication EP4431111A1, “PROBIOTIC AS VACCINE IMMUNOADJUVANT” (COREE S.r.l., priority 2023, dated 2024):

Test system: A549 cells
Assay: Cytotoxicity, LDH-release assay on A549 cells
Type: cell-based, human
Details: 1% Triton X-100, 10 minutes at room temperature, positive control C+ set at 100%
Procedure: The cytotoxicity of all the conditions tested was evaluated on A549 cells by the LDH activity assay. Cells were seeded in 96 well plate at a density of 3×10^4cells/well: they were leaved at 37°C for 24h and then they were co-cultured with S-protein alone or in the presence of aluminium-based adjuvant or heat-inactivated probiotic strains for 24h. At the end of this incubation period, the release of LDH in the supernatants was evaluated by commercial colorimetric kit following manufacturer's instruction. The control included medium alone used as blank. The spectrophotometric absorbance was measured at 450nm wavelength using a microplate reader.

Triton X-100
release of LDH: maximal release of LDH
